According to article PMC8537386, “The Specificity and Broad Multitarget Properties of Ligands for the Free Fatty Acid Receptors FFA3/GPR41 and FFA2/GPR43 and the Related Hydroxycarboxylic Acid Receptor HCA2/GPR109A” (Pharmaceuticals, 2021):
Read-outs that look alike come from different tables or passages of the source.

What was measured:
FFA3/GPR41 [1] = target: T1, FFA3/GPR41 (Homo sapiens, UniProt O14843); set-up: method as in PMID 32141297; settings: described in the literature; cited from earlier work
T1 construct: host or cells: Flp-In-293
T1 sequence (O14843 1-346): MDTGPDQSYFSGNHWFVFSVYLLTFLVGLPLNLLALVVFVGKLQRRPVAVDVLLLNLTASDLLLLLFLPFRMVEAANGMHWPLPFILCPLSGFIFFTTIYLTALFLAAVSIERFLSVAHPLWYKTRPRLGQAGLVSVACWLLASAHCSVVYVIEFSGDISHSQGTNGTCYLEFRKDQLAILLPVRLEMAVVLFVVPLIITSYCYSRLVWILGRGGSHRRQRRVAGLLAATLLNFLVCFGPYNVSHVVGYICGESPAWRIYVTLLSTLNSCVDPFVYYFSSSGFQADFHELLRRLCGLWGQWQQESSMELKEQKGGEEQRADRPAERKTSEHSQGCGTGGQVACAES

FFA3/GPR41 mRNA = assay: FFA3/GPR41 gene expression in LPS-stimulated THP-1 macrophages (qRT-PCR); assay type: cell-based, human; settings: 4 h LPS 1 µg/mL; for LPS-stimulated FFA3/GPR41 mRNA level: compound 50 µM, p < 0.05
Description: (§1) The human THP-1 monocyte cell line was obtained from ATCC (American Type Culture Collection). […] The THP-1 monocytes were stimulated to differentiate into macrophages with phorbol 12-myristate 13-acetate (PMA) (50 ng/mL) for 24 h. The medium was exchanged for PMA-free medium for 48 h before the cells were used for experiments.
(§2) The total RNA was isolated from THP-1 cells using TRIzol reagent, according to the manufacturer’s protocol. First-strand cDNA was synthesized from 2 µg of RNA using oligo(dT) primers with RevertAid H Minus kit (Thermo Fisher Scientific, USA). The qRT-PCR procedure was performed using ABsolute Blue QPCR SYBR Green Master Mix reagent (Thermo Fisher Scientific, USA) with a ViiA7 real-time PCR detection system (Applied Biosystems, USA). The primer pairs that were employed for HCA2/GPR109A were forward 5′-[…]-3′ and reverse 5′-[…]-3′; for FFA2/GPR43 were forward 5′-[…]-3′ and reverse 5′-[…]-3′; for FFA3/GPR41 were forward 5′-[…]-3′ and reverse 5′-[…]-3′; for IL-6 were forward 5′-[…]-3′ and reverse 5′-[…]-3′; for MCP-1 were forward 5′-[…]-3′ and reverse 5′-[…]-3′; for TNF-α were forward 5′-[…]-3′ and reverse 5′-[…]-3′; for RPS29 were forward 5′-[…]-3′ and reverse 5′- […]-3′. The mRNA levels were quantified and normalized to the levels of the reference gene RPS29 using the 2^−ΔΔCt method and presented as relative expression compared to the values for untreated cells.

FFA3/GPR41 [2] = target: T1, FFA3/GPR41; assay: forskolin-stimulated cAMP accumulation assay, Flp-In-293 cells stably expressing FFA3/GPR41; assay type: cell-based; settings: for Emax: read-out: FFA3/GPR41 Emax, maximal inhibition of forskolin-stimulated cAMP (converted)
Description: (§3) All of our synthesized compounds were evaluated in forskolin-stimulated cAMP accumulation assay using Flp-In-293 cells stably expressing human FFA2/GPR43, FFA3/GPR41 or HCA2/GPR109A receptors (Table 1, Table 2 and Table 3; Figure 2).
(§4) Flp-In-293 cells (Invitrogen) were used for the generation of stable FFA3/GPR41 and FFA2/GRP43 cell lines using Flp-In System (Invitrogen). Flp-In-293 cells were cultured in Dulbecco’s modified Eagle medium (DMEM) supplemented with 10% fetal bovine serum (FBS), penicillin (100 U/mL), streptomycin (100 µg/mL), and zeocin (100 µg/mL). The cells were co-transfected with pOG44 (Invitrogen) and pcDNA5/FRT-FFA3 or pcDNA5/FRT-FFA2 using TurboFect (Thermo Fisher Scientific), and stable cell lines were generated according to the manufacturer’s protocol (Invitrogen). After transfection, the cells were cultured under selection pressure due to the presence of hygromycin B (100 µg/mL) in DMEM supplemented with 10% FBS, penicillin, and streptomycin.
(§5) For cAMP assay, the cells were distributed into a 384-well white microplate at a density of 12,000 cells per well and stimulated with the indicated compounds in the presence of 3 μM forskolin for 30 min. […] The cells and the compounds were diluted in 1X phosphate-buffered saline (PBS) supplemented with 0.5 mM of 3-isobutyl-1-methylxanthine. The intracellular cAMP levels were measured using a Lance cAMP kit according to the manufacturer’s instructions. The plates were read on a PerkinElmer Victor 3V multilabel plate reader. The cAMP was quantitated in each sample by comparison to a calibration curve of known cAMP quantities provided in the kit.

MCP-1 mRNA = assay: LPS-induced MCP-1 gene expression in THP-1 macrophages (qRT-PCR); assay type: cell-based, human; settings: 4 h LPS, LPS-treated cells = 100%; for decrease in MCP-1 mRNA: compound 50 µg/mL
Description: as §1, §2

TNF-α mRNA = assay: LPS-induced TNF-α gene expression in THP-1 macrophages (qRT-PCR); assay type: cell-based, human; settings: 4 h LPS, LPS-treated cells = 100%; for decrease in TNF-α mRNA: compound 50 µg/mL
Description: as §1, §2

[3] = set-up: method as in PMID 32141297; settings: calculated with ChemDraw Professional Version 16; cited from earlier work
IL-6 mRNA = assay: LPS-induced IL-6 gene expression in THP-1 macrophages (qRT-PCR); assay type: cell-based, human; settings: 4 h LPS, LPS-treated cells = 100%; for decrease in IL-6 mRNA: compound 50 µg/mL
Description: as §1, §2

[4] = cyclic voltammetry, electrooxidation potential; assay type: physicochemical; settings: vs. Ag/Ag+; acetonitrile, glassy carbon electrode
Description: Cyclic voltammetry experiments were carried out using a PARSTAT 2273 electrochemical system. A stationary glassy carbon disk electrode (d = 0.8 mm) served as the working electrode, while the counter electrode was a Pt wire. The oxidation potentials were measured relative to an Ag/Ag^+ reference electrode. Acetonitrile was dried over P2O5 and distilled; the distillate was stored over CaH2 and redistilled immediately prior to use. Recrystallized tetrabutylammonium tetrafluoroborate (TBATFB) was used as a supporting electrolyte at 0.1 M concentration.

FFA2/GPR43 = target: T2, FFA2/GPR43 (Homo sapiens, UniProt O15552); assay: forskolin-stimulated cAMP accumulation assay, Flp-In-293 cells stably expressing FFA2/GPR43; assay type: cell-based; settings: for inhibition at 50 µM: 50 µM compound, NA = not active up to 50 µM
T2 construct: host or cells: Flp-In-293
T2 sequence (O15552 1-330): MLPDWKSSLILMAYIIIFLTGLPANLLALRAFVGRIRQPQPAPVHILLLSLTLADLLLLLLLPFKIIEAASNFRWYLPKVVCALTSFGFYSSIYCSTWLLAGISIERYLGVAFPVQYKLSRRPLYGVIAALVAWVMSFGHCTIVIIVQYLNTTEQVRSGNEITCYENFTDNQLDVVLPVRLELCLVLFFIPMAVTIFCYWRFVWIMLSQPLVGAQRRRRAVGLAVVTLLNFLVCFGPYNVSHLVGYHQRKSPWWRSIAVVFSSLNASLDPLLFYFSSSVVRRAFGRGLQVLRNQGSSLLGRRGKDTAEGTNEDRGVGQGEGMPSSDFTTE
Description: as §3, §4, §5

HCA2/GPR109A mRNA = assay: HCA2/GPR109A gene expression in LPS-stimulated THP-1 macrophages (qRT-PCR); assay type: cell-based, human; settings: compound 50 µM; 4 h LPS 1 µg/mL; p < 0.05
Description: as §1, §2

HCA2/GPR109A = target: T3, HCA2/GPR109A (Homo sapiens, UniProt Q8TDS4); assay: forskolin-stimulated cAMP accumulation assay, Flp-In-293 cells stably expressing HCA2/GPR109A; assay type: cell-based; settings: for Emax / EC50: mean ± SD; for Emax: read-out: HCA2/GPR109A Emax, maximal inhibition of forskolin-stimulated cAMP (converted); for EC50: inhibition of forskolin-stimulated cAMP, read-out: HCA2/GPR109A EC50
T3 construct: expressed in transfected cells; host or cells: Flp-In-293
T3 sequence (Q8TDS4 whole entry): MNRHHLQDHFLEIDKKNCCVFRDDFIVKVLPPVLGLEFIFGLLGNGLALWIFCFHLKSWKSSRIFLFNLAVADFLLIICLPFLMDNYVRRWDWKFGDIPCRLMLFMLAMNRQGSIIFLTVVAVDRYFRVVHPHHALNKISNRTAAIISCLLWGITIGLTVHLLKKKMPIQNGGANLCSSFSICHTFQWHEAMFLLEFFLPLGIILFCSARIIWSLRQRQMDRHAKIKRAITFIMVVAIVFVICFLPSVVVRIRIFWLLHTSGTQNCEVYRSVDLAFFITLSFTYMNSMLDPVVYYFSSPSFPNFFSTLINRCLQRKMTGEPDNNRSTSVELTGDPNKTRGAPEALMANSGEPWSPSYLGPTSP
Description: as §3
Flp-In-293 cells stably expressing human HCA2/GPR109A receptor (laboratory collection) were grown in DMEM medium supplemented with 10% FBS, penicillin, streptomycin, and hygromycin B (100 µg/mL). All cells were cultured at 37 °C in a humidified incubator containing 5% CO2.
as §5

FFA2/GPR43 mRNA = assay: FFA2/GPR43 gene expression in LPS-stimulated THP-1 macrophages (qRT-PCR); assay type: cell-based, human; settings: 4 h LPS 1 µg/mL
Description: as §1, §2

[5] = inhibition of forskolin-stimulated cAMP, absence of propionate, mean ± SD, read-out: FFA3/GPR41 EC50
[6] = presence of 5 µM propionate, read-out: FFA3/GPR41 EC50 in the presence of propionate

Compound | LPS-stimulated FFA3/GPR41 mRNA level (FFA3/GPR41 mRNA) | Emax (FFA3/GPR41 [2]; Flp-In-293, mean ± SD) | EC50 (FFA3/GPR41 [2]; [5]) | EC50 (FFA3/GPR41 [2]; [6]) | decrease in MCP-1 mRNA (MCP-1 mRNA) | decrease in TNF-α mRNA (TNF-α mRNA) | logP [3] | decrease in IL-6 mRNA (IL-6 mRNA) | El.ox. pot. (first, lower potential) [4] | El.ox. pot. (second, higher potential) [4] | LPS-stimulated HCA2/GPR109A mRNA level (HCA2/GPR109A mRNA) | also measured
4-i-butylhexahydroquinoline methyl ester [compound 28] |  |  |  |  |  |  |  |  |  |  |  | activity in the cAMP assay (in words) (FFA3/GPR41 [1]): no activity
CC1=C(C(=O)Nc2ccccc2C)C(c2cccs2)C2=C(CCCC2=O)N1 (stereo not drawn) [1-1] | significantly increased | 96% | 1790 ± 300 nM | 640 ± 200 nM | 53 ± 5% | 59 ± 10% | 2.65 | 67 ± 1% | 1.19 V | 1.64 V |  | activity towards FFA2/GPR43 (in words) (FFA2/GPR43; cAMP assay): lacked activity
CC1=C(C(=O)Nc2ccccc2C)C(c2ccco2)C2=C(CCCC2=O)N1 (stereo not drawn) [1-2] | significantly increased | 93% | 610 ± 90 nM | 580 ± 30 nM | 67 ± 10% | 64 ± 13% | 2.18 | 74 ± 1% | 1.19 V | 1.99 V |  | 
CC1=C(C(=O)Nc2cc(Cl)ccc2Cl)C(c2ccco2)C2=C(CCCC2=O)N1 (stereo not drawn) [1-3] |  | 99% | 320 ± 50 nM | 100 ± 20 nM |  |  | 2.90 |  |  |  |  | 
CC1=C(C(=O)Nc2ccc(Cl)cc2Cl)C(c2ccco2)C2=C(CCCC2=O)N1 (stereo not drawn) [1-4, N-(2,4-Dichlorophenyl)-4-(furan-2-yl)-2-methyl-5-oxo-1,4,5,6,7,8-hexahydroquinoline-3-carboxamide] |  | 86% | 230 ± 70 nM | 81 ± 40 nM | 37 ± 6% | 50 ± 2% |  | 64 ± 5% | 1.24 V | 1.67 V |  | 
O=c1[nH]c(=O)c2c(CCCCCl)cc(=O)oc2[nH]1 [2-7, 5-(4-Chlorobutyl)-1H-pyrano[2,3-d]pyrimidine-2,4,7-trione] | significantly increased | 89% | 220 ± 30 nM |  | 50 ± 5% | 48 ± 11% |  | 74 ± 3% |  |  | significantly reduced | El.ox. pot. (single value) [4]: 1.94 V; Emax (HCA2/GPR109A; HCA2): 98%; EC50 (HCA2/GPR109A): 54 ± 6 nM; Emax (FFA2/GPR43; Flp-In-293, mean ± SD, read-out: FFA2/GPR43 Emax, maximal inhibition of forskolin-stimulated cAMP (converted)): 88%; EC50 (FFA2/GPR43; inhibition of forskolin-stimulated cAMP, mean ± SD): 380 ± 60 nM
O=C(CSc1nc(=O)c2c(CCCCCl)cc(=O)oc2[nH]1)OCc1ccccc1 [3-3] | significantly increased |  |  |  | 49 ± 5% | 53 ± 9% |  | 65 ± 2% |  |  | significantly reduced | inhibition at 50 µM (FFA3/GPR41 [2]; Flp-In-293, 50 µM compound, NA = not active up to 50 µM): 72 ± 2%; Emax (HCA2/GPR109A; HCA2): 85%; EC50 (HCA2/GPR109A): 17000 ± 3000 nM; inhibition at 50 µM (FFA2/GPR43; Flp-In-293): 66 ± 6%
CC(Sc1nc(=O)c2c(CCCCCl)cc(=O)oc2[nH]1)C(=O)c1ccc(OCc2ccccc2)cc1 (stereo not drawn) [3-4, 2-[2-(4-Benzyloxy-phenyl)-1-methyl-2-oxo-ethylsulfanyl]-5-(4-chlorobutyl)-1H-pyrano[2,3-d]pyrimidine-4,7-dione] |  | 95% | 380 ± 100 nM |  | 41 ± 1% | 58 ± 10% |  | 61 ± 1% |  |  | significantly reduced | El.ox. pot. (single value) [4]: 1.98 V; inhibition at 50 µM (HCA2/GPR109A; HCA2, 50 µM compound, NA = not active up to 50 µM): 33 ± 16%; inhibition at 50 µM (FFA2/GPR43; Flp-In-293): 49 ± 2%
O=C(O)c1cccnc1 [niacin, reference compound] |  |  |  |  |  |  |  |  |  |  |  | LPS-stimulated FFA3/GPR41 gene expression (FFA3/GPR41 mRNA; niacin 50 µM): did not affect; downregulation of LPS-induced MCP-1 mRNA (MCP-1 mRNA; niacin 50 µM): 29 ± 1%; downregulation of LPS-induced TNF-α mRNA (TNF-α mRNA; niacin 50 µM): 32 ± 3%; LPS-stimulated FFA2/GPR43 gene expression (FFA2/GPR43 mRNA; niacin 50 µM): did not affect
CCC(=O)O [propionate, reference compound] |  |  |  |  |  |  |  |  |  |  |  | downregulation of LPS-induced MCP-1 mRNA (MCP-1 mRNA; propionate 1 mM): 33 ± 2%; downregulation of LPS-induced TNF-α mRNA (TNF-α mRNA; propionate 1 mM): 42 ± 4%; downregulation of LPS-induced IL-6 mRNA (IL-6 mRNA; propionate 1 mM): 66 ± 5%; LPS-upregulated FFA2/GPR43 gene expression (FFA2/GPR43 mRNA; propionate 1 mM, not statistically significant (p > 0.05)): slightly increased
